Experimental data reported in ChEMBL document CHEMBL1201862, “PubChem BioAssay data set” (2004).
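Cells were grown in 96-well plates and exposed to each compound for 48 hours at five concentrations; endpoints were interpolated linearly between bracketing concentrations, or set to the highest concentration if not reached. Here, GI50 denotes the concentration required for 50% inhibition of growth.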 Activity calls are given as the source filed them. Rule as the data show it: active = GI50 up to about 1.1 µM and inactive = higher.

What was measured:
Assay in all cases: NCI tumour cell line growth inhibition, 48 h
[1] = test system: SK-MEL-28
[2] = test system: HT-29
[3] = test system: HCT-116
[4] = test system: SK-OV-3
[5] = test system: UACC-257
[6] = test system: NCI-H460
[7] = test system: CCRF-CEM
[8] = test system: EKVX
[9] = test system: SNB-75
[10] = test system: SF-539
[11] = test system: OVCAR-8
[12] = test system: MDA-MB-435
[13] = test system: MCF7
[14] = test system: NCI-H226
[15] = test system: MDA-MB-231
[16] = test system: NCI-H23
[17] = test system: T47D
[18] = test system: A498
[19] = test system: U-251
[20] = test system: UACC-62

SMILES | GI50 [1] | GI50 [2] | GI50 [3] | GI50 [4] | GI50 [5] | GI50 [6] | GI50 [7] | GI50 [8] | GI50 [9] | GI50 [10] | GI50 [11] | GI50 [12] | GI50 [13] | GI50 [14] | GI50 [15] | GI50 [16] | GI50 [17] | GI50 [18] | GI50 [19] | GI50 [20]
COc1cc(C2c3cc4c(cc3[C@@H](Nc3ccc(C#N)cc3)C3COC(=O)[C@H]23)OCO4)cc(OC)c1O (stereo partly specified) | 6.97 µM (inactive) | 3.05 µM (inactive) | 2.01 µM (inactive) | 1.63 µM (inactive) | 7.26 µM (inactive) | 0.038 µM (active) | 0.524 µM (active) | 16.7 µM (inactive) | 2.6 µM (inactive) | 1.14 µM (inactive) | 0.975 µM (active) | 8.77 µM (inactive) | 0.881 µM (active) | 0.665 µM (active) | 9.31 µM (inactive) | 0.622 µM (active) | 0.828 µM (active) | 2.01 µM (inactive) | 1.43 µM (inactive) | 0.962 µM (active)
O=S(=O)(NC1CCCCC1)c1ccc2c(c1)OCCOCCOCCOCCO2 | > 100 µM (inactive) | > 100 µM (inactive) | > 100 µM (inactive) | > 100 µM (inactive) | > 100 µM (inactive) | > 100 µM (inactive) | > 100 µM (inactive) | > 100 µM (inactive) | > 100 µM (inactive) | > 100 µM (inactive) | > 100 µM (inactive) | > 100 µM (inactive) | > 100 µM (inactive) | > 100 µM (inactive) | > 100 µM (inactive) | > 100 µM (inactive) | > 100 µM (inactive) | > 100 µM (inactive) |  | > 100 µM (inactive)
O=C1CSC2=NC3=C(COC/C3=C\c3ccc(F)cc3)C(c3ccc(F)cc3)N12 (stereo unspecified) |  |  | 35.9 µM (inactive) | > 100 µM (inactive) | > 100 µM (inactive) | 38.1 µM (inactive) | 25.8 µM (inactive) | 83.8 µM (inactive) | > 100 µM (inactive) | > 100 µM (inactive) | 55.7 µM (inactive) | 65.2 µM (inactive) | 42 µM (inactive) | > 100 µM (inactive) | > 100 µM (inactive) | 73.1 µM (inactive) | 58.5 µM (inactive) | > 100 µM (inactive) | 63.7 µM (inactive) | > 100 µM (inactive)
O=C(/C=C/c1ccc(Cl)cc1)c1cccs1 | 26.2 µM (inactive) | 16.5 µM (inactive) | 14.8 µM (inactive) | 26.4 µM (inactive) | 19.6 µM (inactive) | 18.4 µM (inactive) | 6.61 µM (inactive) | 26.6 µM (inactive) | 22.5 µM (inactive) | 34.3 µM (inactive) | 21.7 µM (inactive) | 13 µM (inactive) | 3.62 µM (inactive) | 22.4 µM (inactive) | 20 µM (inactive) | > 10 µM (inactive) | 21 µM (inactive) | 23.3 µM (inactive) | 16 µM (inactive) | 21 µM (inactive)
Nc1c2c(nc3ccccc13)-c1ccccc1NCCC2 | 18.2 µM (inactive) | 23 µM (inactive) | 23.3 µM (inactive) | 64.6 µM (inactive) | 13.6 µM (inactive) | 15.3 µM (inactive) | 26.4 µM (inactive) | 38.3 µM (inactive) | 43.4 µM (inactive) | 21 µM (inactive) | 42.2 µM (inactive) | 22 µM (inactive) | 34.2 µM (inactive) | 25.4 µM (inactive) | 19.7 µM (inactive) | 47.3 µM (inactive) | 26.1 µM (inactive) | 16.6 µM (inactive) | 32.2 µM (inactive) | 18.3 µM (inactive)
CCOC(=O)c1ccc(C(=O)/C(C#N)=C2\CCCN2)[nH]1 | > 100 µM (inactive) | 72.3 µM (inactive) | 82.4 µM (inactive) | > 100 µM (inactive) | > 100 µM (inactive) | > 100 µM (inactive) | 63.2 µM (inactive) | 11.7 µM (inactive) | 34 µM (inactive) | > 100 µM (inactive) | > 100 µM (inactive) | 28.8 µM (inactive) | 98.4 µM (inactive) | > 100 µM (inactive) | > 100 µM (inactive) | > 100 µM (inactive) | > 100 µM (inactive) | > 100 µM (inactive) | > 100 µM (inactive) | > 100 µM (inactive)
CCOC(=O)/C=C(\C(=O)OCC)n1ccc(=O)n(Cc2cn(CCCCOC(C)=O)nn2)c1=O | 8.17 µM (inactive) | 8.05 µM (inactive) | 11.2 µM (inactive) | 32.4 µM (inactive) | 17.4 µM (inactive) | 13.6 µM (inactive) | 1.28 µM (inactive) | 13 µM (inactive) | 19.5 µM (inactive) | 2.34 µM (inactive) | 7.01 µM (inactive) | 5 µM (inactive) | 7.69 µM (inactive) | 13.6 µM (inactive) | 18.6 µM (inactive) | 16.6 µM (inactive) | 5.36 µM (inactive) | 17.6 µM (inactive) | 16.1 µM (inactive) | 16.1 µM (inactive)
O=C(NI1OC(=O)c2ccccc21)c1ccc(Cl)cc1 | > 100 µM (inactive) | > 100 µM (inactive) | > 100 µM (inactive) | > 100 µM (inactive) | > 100 µM (inactive) | > 100 µM (inactive) | 85.5 µM (inactive) | > 100 µM (inactive) | > 100 µM (inactive) | > 100 µM (inactive) | > 100 µM (inactive) | > 100 µM (inactive) | > 100 µM (inactive) | 60.4 µM (inactive) | > 100 µM (inactive) | > 100 µM (inactive) | > 100 µM (inactive) | > 100 µM (inactive) | 45.7 µM (inactive) | 51.6 µM (inactive)
O=c1ccc2cc(O)c(O)cc2o1 [ESCULETIN] | > 100 µM (inactive) | > 100 µM (inactive) | > 100 µM (inactive) | > 100 µM (inactive) | > 100 µM (inactive) | > 100 µM (inactive) | > 100 µM (inactive) | > 100 µM (inactive) | > 100 µM (inactive) | > 100 µM (inactive) | > 100 µM (inactive) | > 100 µM (inactive) | > 100 µM (inactive) | > 100 µM (inactive) | > 100 µM (inactive) | > 100 µM (inactive) | > 41.8 µM (inactive) | > 100 µM (inactive) | > 100 µM (inactive) | > 100 µM (inactive)
c1ccc(/C(=N\Nc2nc3ccccc3[nH]2)c2ccccn2)cc1 | 1.14 µM (inactive) | 0.0101 µM (active) | 0.0362 µM (active) | 0.342 µM (active) | 0.298 µM (active) | 0.617 µM (active) | 0.0959 µM (active) | 0.47 µM (active) | 0.531 µM (active) | 0.388 µM (active) | 0.254 µM (active) | 0.755 µM (active) | 0.148 µM (active) | 0.256 µM (active) | 0.415 µM (active) | 0.381 µM (active) | 0.136 µM (active) | 0.916 µM (active) | 0.407 µM (active) | 0.82 µM (active)
CCN(CC)c1nc(=O)c(C(=O)C(C)(C)C)c(C(C)(C)C)o1 | > 100 µM (inactive) | > 100 µM (inactive) | > 100 µM (inactive) | > 100 µM (inactive) | > 100 µM (inactive) | > 100 µM (inactive) | > 100 µM (inactive) | > 100 µM (inactive) | > 100 µM (inactive) | > 100 µM (inactive) | > 100 µM (inactive) | > 100 µM (inactive) | > 100 µM (inactive) | > 100 µM (inactive) | > 100 µM (inactive) | > 100 µM (inactive) | > 100 µM (inactive) | > 100 µM (inactive) | > 100 µM (inactive) | > 100 µM (inactive)
CC[C@@H](/C=C\CCC1(C[C@H](O)CCC=C(C)C)OCCO1)O[Si](C(C)C)(C(C)C)C(C)C | 26.7 µM (inactive) | 25 µM (inactive) | 17 µM (inactive) | 21.8 µM (inactive) | 22.5 µM (inactive) | 21.9 µM (inactive) | 29 µM (inactive) | 28.8 µM (inactive) | 29.5 µM (inactive) | 18.5 µM (inactive) | 19.9 µM (inactive) | 35 µM (inactive) | 17.3 µM (inactive) | 19.6 µM (inactive) | 17.3 µM (inactive) | 26.9 µM (inactive) | 19.1 µM (inactive) | 32.8 µM (inactive) | 17.3 µM (inactive) | 22.6 µM (inactive)
C#CCn1c(=O)ccn(/C(=C/C(=O)OCC)C(=O)OCC)c1=O | 7.41 µM (inactive) | 2.17 µM (inactive) | 6.15 µM (inactive) | 35.2 µM (inactive) | 15 µM (inactive) | 2.69 µM (inactive) | 0.61 µM (active) | 5.62 µM (inactive) | 20.8 µM (inactive) | 1.48 µM (inactive) | 2.2 µM (inactive) | 10.9 µM (inactive) | 3.18 µM (inactive) | 18.6 µM (inactive) | 14.8 µM (inactive) | 11.9 µM (inactive) | 2.67 µM (inactive) | 15.1 µM (inactive) | 14.2 µM (inactive) | 14 µM (inactive)
CC(=O)OCC(C)(COC(C)=O)N1C(=O)C2C3c4ccccc4C(c4ccccc43)C2C1=O (stereo unspecified) |  | > 100 µM (inactive) | 33 µM (inactive) | > 100 µM (inactive) | > 100 µM (inactive) | > 100 µM (inactive) | > 100 µM (inactive) | > 100 µM (inactive) | 49.7 µM (inactive) | > 100 µM (inactive) | > 100 µM (inactive) | > 100 µM (inactive) | > 100 µM (inactive) | > 100 µM (inactive) | > 100 µM (inactive) | > 100 µM (inactive) | > 100 µM (inactive) | > 100 µM (inactive) | > 100 µM (inactive) | > 100 µM (inactive)
